According to patent publication US20180251431A1 (VERTEX PHARMACEUTICALS INCORPORATED, priority 2016, published 2018):
Entries after “also recorded” stand apart in the source; their conditions may differ. Like-named read-outs stand apart in the source and are kept apart here.

Columns and labels:
[1] = Blood exposure (AUC) in the 28-day oral dosing study in mice; assay type: in vivo; conditions: ABCD1 knockout (KO), mouse, whole blood (dried blood spots), read-out: Blood area under the concentration time-curve (AUC)
[2] = system: healthy human fibroblasts; assay: Reduction in C26:0 LPC in healthy human fibroblasts in vitro; assay type: cell-based; conditions: Healthy 2 Fibroblast, half maximal reduction in C26:0 LPC, each number a separate measurement
ABCD1 knockout (KO) mice = assay: Reduction of blood C26:0 LPC in vivo in ABCD1 knockout mice (DBS, LC-MS/MS); set-up: species or system mouse
Protocol: Bioanalysis of LPC in Whole Blood and Brain Tissue:
A LC-MS/MS method of analyzing Lysophosphatidylcholine (LPC) in whole blood (dried blood spot card, DBS) and brain tissue samples was developed for measuring the abundance of saturated C16, C18, C20, C22, C24 and C26 LPC in DBS and brain samples. Whole blood was collected with Whatman DMPK-C DBS card at an approximate volume of 20 μL at each time point. Brain tissue was collected at the end point of the study. Samples were prepared and LC-MS/MS analysis was performed as described below.
Sample Preparation for LPC Bioanalysis:
For DBS bioanalysis, the DBS card was punched at 3 mm in diameter using a semi-automated DBS card puncher. To each punched spot 200 μL of pure methanol was added. The vial was vortexed at low speed for 20 minutes and centrifuged at 4000 rpm for 20 minutes. The clear supernatant was injected onto LC-MS/MS for analysis. For brain tissue bioanalysis, brain tissue was collected in a tared homogenization tube pre-filled with metal bead and weighted. To each sample vial two parts weight of methanol was added. The sample was homogenized using Precellys-24 at 5000 rpm for 20 seconds with one cycle. A 100 mg aliquot of homogenate was used for analysis. To each sample vial 400 μL of pure methanol was added. The vial was vortexed at low speed for 20 minutes and centrifuged at 4000 rpm for 20 minutes. The clear supernatant was injected onto LC-MS/MS for analysis.
The supernatant obtained from each sample was injected into a LC-MS/MS system (Agilent Technologies, Santa Clara, Calif. and Applied Biosystems, Framingham, Mass.) for analysis. All six LPC components (C16:0, C18:0, C20:0, C22:0, C24:0 and C26:0) were chromatographically separated using a Series 1290 binary pump and a Phenomenex (Torrance, Calif.) Kinetex C18 analytical column (2.1×100 mm, 5 μm particle diameter) with a 10-min gradient. A 5% acetonitrile in water solution was used as the aqueous phase and a 40% acetonitrile/60% methanol solution in 1% 2 Mol ammonium acetate was used as the organic mobile phase for achieving the chromatographic analysis. LPCs were detected by an AB Sciex API-6500 triple quadrupole MS with electrospray ionization in the mode of multiple reaction monitoring. Ions of Q1 were monitored at m/z of 496.6, 524.6, 552.6, 580.6, 608.6 and 636.6 for LPC 16:0, LPC 18:0, LPC 20:0, LPC 22:0, LPC 24:0 and LPC 26:0, respectively. A common Q3 ion m/z of 184.2 was used for all LPC analyses. C16:0 LPC levels were expressed as a concentration. All other LPC levels were expressed relative to C16. A one-way ANOVA with Dunnett's multiple comparisons test was performed to assess differences in LPC levels among the different groups. A value of P≤0.05 was considered statistically significant. All statistical analyses were conducted using Prism Software version 7.01 (GraphPad, La Jolla, Calif.).
Dosing in ABCD1 Knockout Mice:
To determine the effect of Compound 87 on blood VLCFA levels, Compound 87 was administered to ABCD1 knockout (KO) mice, a model that reproduces the C26:0 VLCFA accumulation observed in ALD patients. Specifically, Compound 87 was administered orally (PO) QD at 1, 8, or 16 mg/kg to ABCD1 KO mice (n=5 per group). DBS were collected on day 0 (pre-dosing), and daily through 14 days of dosing. DBS cards were stored at 4° C. in sealed ziplock bags with desiccant until they could be analyzed for LPC using the sample preparation and LC-MS/MS as described above. The vehicle used was 2% D-α-Tocopherol polyethylene glycol 1000 succinate (TPGS) and Compound 87 doses were prepared in 2% TPGS. […] Interperitoneal dosing, at 2 or 20 mg/kg (data not shown) or oral (PO) dosing at 1, 8, or 16 mg/kg (FIG. 2A) yielded similar results. A dose response was observed between 1 and 8 mg/kg. […] Error bars indicate standard deviation.
Daily Oral Dosing in ABCD1 Knockout Mice: […]

O=C(Nc1ccn(-c2ccnc(F)c2)n1)C1(c2ccccc2F)CC1 [Compound 87, 1-(2-fluorophenyl)-N-[1-(2-fluoro-4-pyridyl)pyrazol-3-yl]cyclopropanecarboxamide]
AUC ([1]; 4 mg/kg PO QD): 1950 ng·h/mL | AUC ([1]; 8 mg/kg PO QD): 3490 ng·h/mL | IC50 [2]: 6 nM | IC50 ([2]; Homo sapiens, Fibroblast): 9 nM | Plasma C26:0 LPC levels (ABCD1 knockout (KO) mice; ABCD1 KO mice, 1, 8, or 16 mg/kg PO QD for 14 days): dropped over the first 8 days before plateauing at near WT baseline levels | reduction in C24:0 and C26:0 LPC levels compared to vehicle controls (ABCD1 knockout (KO) mice; ABCD1 KO mice, blood (DBS), 0.5 mg/kg PO QD for 28 days): 50% | reduction in C26:0 LPC levels (dose response plateau) (ABCD1 knockout (KO) mice; ABCD1 KO mice, blood (DBS), plateau between the 4 mg/kg and 8 mg/kg doses, PO QD 28 days): approximately 75% | time for LPC levels to return to baseline levels after compound discontinuation (ABCD1 knockout (KO) mice; adult female ABCD1 KO mice, 1 or 8 mg/kg PO QD for 14 days, then discontinued): approximately 1 week | C26:0 LPC reducing effect after discontinuation of treatment (ABCD1 knockout (KO) mice; adult female ABCD1 KO mice, 1 or 8 mg/kg PO QD for 14 days, then discontinued, blood LPC followed another 2 weeks): reversible; also recorded: to about baseline level | C26:0 LPC/C16:0 LPC levels in the blood (ABCD1 knockout (KO) mice; female ABCD1 KO mice, 1 and 10 mg/kg PO QD, 3 months of dosing): maintained at near WT levels | reduction in C26:0 LPC levels in vivo (ABCD1 knockout (KO) mice; female ABCD1 KO mice, blood (DBS), 1 mg/kg PO QD for 3 months): ~65% | reduction in C26:0 LPC levels in vivo (ABCD1 knockout (KO) mice; female ABCD1 KO mice, blood (DBS), 10 mg/kg PO QD for 3 months): ~70%
